Each block holds one molecule with its values, some of them ahead of it.
Key:
SSTR4 [1] = details: SSTR4 selective agonist; cited from earlier work
Text: (§1) Along with increased knowledge of the pharmacological effects of these receptors, medical application of SST and its analogs has expanded. A considerable amount of effort has been made to develop new therapeutics for oncology of SSTRs. […] It was found recently that radiolabeled SSTR antagonists produced superi ...

SSTR4 [2] = biological target: T1, SSTR4 (Homo sapiens, UniProt P31391, L297A); assay: cAMP accumulation assay (agonist-induced inhibition of forskolin-stimulated cAMP), SSTR4, HEK293F; format: cell-based; details: SSTR4 mutant L297^7.39A; mean ± SEM;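 also: transiently transfected cells incubated 40 min at room temperature with 4 µM forskolin and graded ligand, cAMP read by LANCE Ultra TR-FRET kit, values normalized to WT receptor per ligand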
T1 construct: expressed in transfected cells; host or cells: HEK293F
Method: (§2) HEK293F cells were transiently transfected with WT or mutant SSTR2/SSTR4 using transfection reagent (PEI MAX 2000, Polysciences) and incubated at 37 °C in 5% CO2. Forty-eight hours after transfection, cells were centrifuged and resuspended in stimulation buffer (Hanks’ balanced salt solution (HBSS) supplemented with 5 mM HEPES, 0.5 mM IBMX and 0.1% (w/v) bovine serum albumin (BSA), pH 7.4) to a density of 200,000 cells/mL and added to 384-well white plates (PerkinElmer, 1000 cells/well). cAMP accumulation was measured by a LANCE Ultra cAMP kit (PerkinElmer) according to the manufacturer’s instructions. In brief, transfected cells were incubated for 40 min in stimulation buffer with 2.5 μL forskolin (SSTR2: 2 μM; SSTR4: 4 μM) and gradient concentration of ligand at RT. The reactions were stopped by addition of lysis buffer containing 5 μL Eu-cAMP tracer and 5 μL ULight-anti-cAMP. Plates were then incubated for 60 min at RT and time-resolved FRET signals were measured at 620 nm and 665 nm by an EnVision multilabel plate reader (PerkinElmer). Data were analyzed in GraphPad PRISM 8 and all values were normalized to the WT for each ligand. All outcomes were repeated at least three times.
(§3) aMutants represent that mutations were introduced separately into the WT receptors and
(§4) transiently expressed in HEK 293F cells.
(§5) bThe EC50 ratio was shown as EC50(mutant)/EC50(WT), indicating the shift between the WT
(§6) and mutant curves, reflecting the effect of the mutations on receptor signaling.
(§7) cData are shown as mean ± S.E.M. from at least three independent experiments
(§8) performed in technical triplicate. One-way ANOVA was performed followed by
(§9) Dunnett’s post-test and compared with WT. The P value was defined as: *P<0.05;
(§10) d The span is defined as the window between the maximal agonists response (Emax) and
(§11) e Sample size; the number of independent experiments performed in technical triplicate.
(§12) f Receptor expression level of HEK 293F cells was determined independently by flow
(§13) cytometry with anti-FLAG antibody and shown as per cent compared to the WT.

SSTR4 [3] = biological target: T2, SSTR4 (Homo sapiens, UniProt P31391, F211A); assay: as above; format: cell-based; details: SSTR4 mutant F211^5.38A; mean ± SEM
T2 construct: expressed in transfected cells; host or cells: HEK293F
Method: as §2, §3, §4, §5, §6, §7, §8, §9, §10, §11, §12, §13

SSTR4 [4] = biological target: T3, SSTR4 (Homo sapiens, UniProt P31391, N293A); assay: as above; format: cell-based; details: SSTR4 mutant N293^7.35A; mean ± SEM
T3 construct: expressed in transfected cells; host or cells: HEK293F
Method: as §2, §3, §4, §5, §6, §7, §8, §9, §10, §11, §12, §13

SSTR4 [5] = assay: as above; format: cell-based, human; details: for EC50 ratio: EC50(mutant)/EC50(WT)
Method: as §2, §3, §4, §5, §6, §7, §8, §9, §10, §11, §12, §13

SSTR4 [6] = biological target: T4, SSTR4 (Homo sapiens, UniProt P31391, V103L); assay: as above; format: cell-based; details: SSTR4 mutant V103^2.60L; mean ± SEM
T4 construct: expressed in transfected cells; host or cells: HEK293F
Method: as §2, §3, §4, §5, §6, §7, §8, §9, §10, §11, §12, §13

SSTR4 [7] = biological target: T5, SSTR4 (Homo sapiens, UniProt P31391, L123A); assay: as above; format: cell-based; details: SSTR4 mutant L123^3.29A; mean ± SEM
T5 construct: expressed in transfected cells; host or cells: HEK293F
Method: as §2, §3, §4, §5, §6, §7, §8, §9, §10, §11, §12, §13

SSTR4 [8] = biological target: T6, SSTR4 (Homo sapiens, UniProt P31391, N282A); assay: as above; format: cell-based; details: SSTR4 mutant N282^6.58A; mean ± SEM
T6 construct: expressed in transfected cells; host or cells: HEK293F
Method: as §2, §3, §4, §5, §6, §7, §8, §9, §10, §11, §12, §13

SSTR2 [9] = biological target: T7, SSTR2 (Homo sapiens, UniProt P30874, V298A); assay: cAMP accumulation assay (agonist-induced inhibition of forskolin-stimulated cAMP), SSTR2, HEK293F; format: cell-based; details: SSTR2 mutant V298^7.39A; mean ± SEM;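 also: transiently transfected cells exposed to 2 µM forskolin and a ligand concentration series for 40 min at room temperature in IBMX-containing HBSS, then cAMP quantified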
T7 construct: expressed in transfected cells; host or cells: HEK293F
Method: as §2, §3, §4, §5, §6, §7, §8, §9, §10, §11, §12, §13

SSTR2 [10] = biological target: T8, SSTR2 (Homo sapiens, UniProt P30874, P286A); assay: as above; format: cell-based; details: SSTR2 mutant P286^ECL3A; mean ± SEM
T8 construct: expressed in transfected cells; host or cells: HEK293F
Method: as §2, §3, §4, §5, §6, §7, §8, §9, §10, §11, §12, §13

SSTR2 [11] = biological target: T9, SSTR2 (Homo sapiens, UniProt P30874, F208A); assay: as above; format: cell-based; details: SSTR2 mutant F208^5.38A; mean ± SEM
T9 construct: expressed in transfected cells; host or cells: HEK293F
Method: as §2, §3, §4, §5, §6, §7, §8, §9, §10, §11, §12, §13

SSTR2 [12] = biological target: T10, SSTR2 (Homo sapiens, UniProt P30874, K291A); assay: as above; format: cell-based; details: SSTR2 mutant K291^7.32A; mean ± SEM
T10 construct: expressed in transfected cells; host or cells: HEK293F
Method: as §2, §3, §4, §5, §6, §7, §8, §9, §10, §11, §12, §13

SSTR2 [13] = biological target: T11, SSTR2 (Homo sapiens, UniProt P30874, I284A); assay: as above; format: cell-based; details: SSTR2 mutant I284^ECL3A; mean ± SEM
T11 construct: expressed in transfected cells; host or cells: HEK293F
Method: as §2, §3, §4, §5, §6, §7, §8, §9, §10, §11, §12, §13

SSTR2 [14] = biological target: T12, SSTR2 (Homo sapiens, UniProt P30874, N276A); assay: as above; format: cell-based; details: SSTR2 mutant N276^6.55A; mean ± SEM
T12 construct: expressed in transfected cells; host or cells: HEK293F
Method: as §2, §3, §4, §5, §6, §7, §8, §9, §10, §11, §12, §13

SSTR2 [15] = biological target: T13, SSTR2 (Homo sapiens, UniProt P30874, S316D/V106E); assay: as above; format: cell-based; details: Construct 2* SSTR2; mean ± SEM
T13 construct: expressed in transfected cells; host or cells: HEK293F
Method: as §2, §3, §4, §5, §6, §7, §8, §9, §10, §11, §12, §13

SSTR2 [16] = assay: as above; format: cell-based, human; details: EC50(mutant)/EC50(WT)
Method: as §2, §3, §4, §5, §6, §7, §8, §9, §10, §11, §12, §13

[17] = tested on: growth hormone and glucagon releases; details: full agonist; cited from earlier work
Text: as §1

SSTR2 [18] = biological target: SSTR2 (Homo sapiens, UniProt P30874, Y302A); assay: Whole cell binding assay, SSTR2, competition with 125I-Tyr11-SST14, CHO-K1; details: SSTR2 mutant Y302^7.43A; mean ± SEM;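 also: Cell-bound radioactivity in lysed CHO-K1 cells read by scintillation counting, each mutation introduced singly into the WT receptor, at least three independent experiments run in technical triplicate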
Method: (§14) For SSTR2 and SSTR4, CHO-K1 cells were cultured in F12 medium with 10% FBS and seeded at a density of 30,000 cells/well in Isoplate-96 plates (PerkinElmer). Twenty-four hours after transfection with the WT or mutant SSTR2/SSTR4, CHO-K1 cells were washed twice and incubated with blocking buffer (F12 supplemented with 25 mM HEPES and 0.1% (w/v) BSA, pH 7.4) for 2 h at 37 °C. […] Following incubation, cells were washed three times with ice-cold PBS and lysed by 50 μL lysis buffer (PBS supplemented with 20 mM Tris-HCl, 1% Triton X-100, pH 7.4). The radioactivity was subsequently counted (counts/min, CPM) in a scintillation counter (MicroBeta[2] Plate Counter, PerkinElmer) using a scintillation cocktail (OptiPhaseSuperMix, PerkinElmer). Data were analyzed by nonlinear regression using GraphPad PRISM 8.
(§15) aMutants represent that all mutations were introduced separately into the WT receptors
and expressed in CHO K1 cells.
(§16) bThe IC50 ratio was shown as IC50(mutant)/IC50(WT), indicating the shift between the WT
(§17) and mutant curves, reflecting the effect of the mutations on ligand binding.
(§18) cData are shown as mean ± S.E.M. form at least three independent experiments
as §8
(§19) Dunnett’s post-test and compared with WT.
as §10, §11

SSTR2 [19] = biological target: SSTR2 (Homo sapiens, UniProt P30874, T212A); assay: as above; details: SSTR2 mutant T212^5.42A; mean ± SEM
Method: as §14, §15
and expressed in CHO K1 cells.
as §16, §17, §18, §8, §19, §10, §11

SSTR2 [20] = biological target: SSTR2 (Homo sapiens, UniProt P30874, Q102A); assay: as above; details: SSTR2 mutant Q102^2.63A; mean ± SEM
Method: as §14, §15
and expressed in CHO K1 cells.
as §16, §17, §18, §8, §19, §10, §11

SSTR2 [21] = biological target: SSTR2 (Homo sapiens, UniProt P30874, F272A); assay: as above; details: SSTR2 mutant F272^6.51A; mean ± SEM
Chain of SSTR2 (Homo sapiens, UniProt P30874, F272A) (P30874 whole entry F272A): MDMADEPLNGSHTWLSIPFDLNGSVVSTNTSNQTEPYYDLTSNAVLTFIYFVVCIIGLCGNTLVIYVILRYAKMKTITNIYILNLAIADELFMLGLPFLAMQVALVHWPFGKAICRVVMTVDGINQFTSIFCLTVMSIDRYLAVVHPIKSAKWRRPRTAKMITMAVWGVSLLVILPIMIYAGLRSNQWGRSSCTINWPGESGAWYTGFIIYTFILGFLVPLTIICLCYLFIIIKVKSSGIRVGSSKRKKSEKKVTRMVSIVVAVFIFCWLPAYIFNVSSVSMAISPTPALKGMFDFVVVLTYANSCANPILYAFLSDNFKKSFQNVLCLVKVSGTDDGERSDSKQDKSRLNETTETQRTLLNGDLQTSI
Method: as §14, §15
and expressed in CHO K1 cells.
as §16, §17, §18, §8, §19, §10, §11

T11 sequence (P30874 whole entry I284A): as the sequence (P30874 whole entry F272A) above, with A272F, I284A counted along it
T8 sequence (P30874 whole entry P286A): as the sequence (P30874 whole entry F272A) above, with A272F, P286A counted along it
T13 sequence (P30874 1-359 V106E/S316D): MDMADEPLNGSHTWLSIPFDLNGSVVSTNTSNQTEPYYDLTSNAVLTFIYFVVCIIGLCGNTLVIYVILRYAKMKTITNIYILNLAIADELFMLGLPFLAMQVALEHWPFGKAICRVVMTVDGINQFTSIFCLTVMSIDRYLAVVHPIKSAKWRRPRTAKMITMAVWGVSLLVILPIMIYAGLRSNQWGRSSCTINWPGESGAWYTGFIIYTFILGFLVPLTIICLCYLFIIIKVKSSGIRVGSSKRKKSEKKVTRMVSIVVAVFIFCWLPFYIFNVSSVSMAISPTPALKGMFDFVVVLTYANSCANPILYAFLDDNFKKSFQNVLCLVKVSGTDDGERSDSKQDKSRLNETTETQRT
T12 sequence (P30874 whole entry N276A): as the sequence (P30874 whole entry F272A) above, with A272F, N276A counted along it
T5 sequence (P31391 whole entry L123A): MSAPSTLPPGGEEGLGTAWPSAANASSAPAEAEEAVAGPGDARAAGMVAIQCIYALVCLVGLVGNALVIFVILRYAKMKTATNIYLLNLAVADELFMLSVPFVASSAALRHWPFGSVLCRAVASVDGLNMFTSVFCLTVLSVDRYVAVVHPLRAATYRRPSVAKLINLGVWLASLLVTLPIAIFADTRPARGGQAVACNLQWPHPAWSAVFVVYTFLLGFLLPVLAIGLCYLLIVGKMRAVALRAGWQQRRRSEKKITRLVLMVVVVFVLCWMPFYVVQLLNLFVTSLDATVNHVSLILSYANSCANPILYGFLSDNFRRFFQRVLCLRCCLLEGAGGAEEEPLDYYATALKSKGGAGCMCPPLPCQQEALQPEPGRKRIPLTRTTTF
T6 sequence (P31391 whole entry N282A): as the sequence (P31391 whole entry L123A) above, with A123L, N282A counted along it
Chain of SSTR2 (Homo sapiens, UniProt P30874, T212A) (P30874 whole entry T212A): as the sequence (P30874 whole entry F272A) above, with T212A, A272F counted along it
T7 sequence (P30874 whole entry V298A): as the sequence (P30874 whole entry F272A) above, with A272F, V298A counted along it
T4 sequence (P31391 whole entry V103L): as the sequence (P31391 whole entry L123A) above, with V103L, A123L counted along it
T3 sequence (P31391 whole entry N293A): as the sequence (P31391 whole entry L123A) above, with A123L, N293A counted along it
T2 sequence (P31391 whole entry F211A): as the sequence (P31391 whole entry L123A) above, with A123L, F211A counted along it
T9 sequence (P30874 whole entry F208A): as the sequence (P30874 whole entry F272A) above, with F208A, A272F counted along it
T1 sequence (P31391 whole entry L297A): as the sequence (P31391 whole entry L123A) above, with A123L, L297A counted along it
Chain of SSTR2 (Homo sapiens, UniProt P30874, Q102A) (P30874 whole entry Q102A): as the sequence (P30874 whole entry F272A) above, with Q102A, A272F counted along it
T10 sequence (P30874 whole entry K291A): as the sequence (P30874 whole entry F272A) above, with A272F, K291A counted along it
Chain of SSTR2 (Homo sapiens, UniProt P30874, Y302A) (P30874 whole entry Y302A): as the sequence (P30874 whole entry F272A) above, with A272F, Y302A counted along it

Span (SSTR4 [2]): 111 ± 8 % of WT | pEC50 ± SEM (SSTR4 [2]): 7.59±0.16 | Span (SSTR4 [3]): 94±7 % of WT | pEC50 ± SEM (SSTR4 [3]): 8.20±0.17 | Span (SSTR4 [4]): 87±6 % of WT | pEC50 ± SEM (SSTR4 [4]): 9.30±0.17 | EC50 ratio (SSTR4 [5]; Construct 4 SSTR4): 0.2 | EC50 ratio (SSTR4 [5]; SSTR4 mutant F211^5.38A): 33 | EC50 ratio (SSTR4 [5]; SSTR4 mutant L123^3.29A): 2 | EC50 ratio (SSTR4 [5]; SSTR4 mutant L297^7.39A): 137 | EC50 ratio (SSTR4 [5]; SSTR4 mutant M130^3.36A): 4 | EC50 ratio (SSTR4 [5]; SSTR4 mutant N199^ECL2A): 0.3 | EC50 ratio (SSTR4 [5]; SSTR4 mutant N293^7.35A): 3 | EC50 ratio (SSTR4 [5]; SSTR4 mutant Q279^6.55A): 1 | EC50 ratio (SSTR4 [5]; SSTR4 mutant T215^5.42A): 1 | EC50 ratio (SSTR4 [5]; SSTR4 mutant V103^2.60L): 5 | EC50 ratio (SSTR4 [5]; SSTR4 mutant Y276^6.52A): 1016 | EC50 ratio (SSTR4 [5]; SSTR4 mutant Y301^7.43A): 497 | EC50 ratio (SSTR4 [5]; WT SSTR4): 1 | Span (SSTR4 [6]): 40±4 % of WT | pEC50 ± SEM (SSTR4 [6]): 9.00±0.25 | Span (SSTR4 [7]): 61±6 % of WT | pEC50 ± SEM (SSTR4 [7]): 9.49±0.23 | Span (SSTR4 [8]): 62±5 % of WT | pEC50 ± SEM (SSTR4 [8]): 9.99±0.21
Compound: Cc1ccc(S(=O)(=O)N[C@@H](CCN)C(=O)N[C@@H](Cc2ccccc2)C(N)=O)c2ccccc12 [J-2156]
pain relief (SSTR4 [1]): mediates pain relief | effect of alanine mutation on agonist potency (SSTR4 [5]; SSTR4 F275^6.51 and Y276^6.52): significant reduction in agonist potency | decrease of potency (SSTR4 [5]; SSTR4 mutant V103^2.60 to leucine): ~ 5 fold

Span (SSTR2 [9]): 131±9 % of WT | pEC50 ± SEM (SSTR2 [9]): 8.68±0.16 | Span (SSTR2 [10]): 96±7 % of WT | pEC50 ± SEM (SSTR2 [10]): 8.83±0.18 | Span (SSTR2 [11]): 81±5 % of WT | pEC50 ± SEM (SSTR2 [11]): 9.34±0.13 | pEC50 ± SEM (SSTR2 [12]): 9.02±0.12 | Span (SSTR2 [13]): 84±7 % of WT | pEC50 ± SEM (SSTR2 [13]): 9.07±0.22 | Span (SSTR2 [14]): 80±5 % of WT | pEC50 ± SEM (SSTR2 [14]): 8.47±0.15 | Span (SSTR2 [15]): 76±6 % of WT | pEC50 ± SEM (SSTR2 [15]): 9.28±0.17 | EC50 ratio (SSTR2 [16]; Construct 2* SSTR2): 2 | EC50 ratio (SSTR2 [16]; SSTR2 mutant D122^3.32A): 191 | EC50 ratio (SSTR2 [16]; SSTR2 mutant F208^5.38A): 2 | EC50 ratio (SSTR2 [16]; SSTR2 mutant F272^6.51A): 64 | EC50 ratio (SSTR2 [16]; SSTR2 mutant F275^6.54A): 5 | EC50 ratio (SSTR2 [16]; SSTR2 mutant F294^7.35A): 20 | EC50 ratio (SSTR2 [16]; SSTR2 mutant I284^ECL3A): 4 | EC50 ratio (SSTR2 [16]; SSTR2 mutant K291^7.32A): 4 | EC50 ratio (SSTR2 [16]; SSTR2 mutant N276^6.55A): 15 | EC50 ratio (SSTR2 [16]; SSTR2 mutant P286^ECL3A): 7 | EC50 ratio (SSTR2 [16]; SSTR2 mutant Q102^2.63A): 2 | EC50 ratio (SSTR2 [16]; SSTR2 mutant Q126^3.36A): 3 | EC50 ratio (SSTR2 [16]; SSTR2 mutant T194^ECL2A): 3 | EC50 ratio (SSTR2 [16]; SSTR2 mutant T212^5.42A): 5 | EC50 ratio (SSTR2 [16]; SSTR2 mutant V298^7.39A): 10 | EC50 ratio (SSTR2 [16]; SSTR2 mutant Y205^5.35A): 0.05 | EC50 ratio (SSTR2 [16]; SSTR2 mutant Y302^7.43A): 10 | Span (SSTR2 [18]): 15±2 % of WT | Span (SSTR2 [19]): 94±5 % of WT | pIC50 ± SEM (SSTR2 [19]): 8.49±0.11 | Span (SSTR2 [20]): 20±5 % of WT | pIC50 ± SEM (SSTR2 [20]): 6.35±0.52 | Span (SSTR2 [21]): 13±3 % of WT
Compound: C[C@@H](c1c[nH]c2ccccc12)[C@@H](NC(=O)N1CCC(n2c(=O)[nH]c3ccccc32)CC1)C(=O)N[C@@H](CCCCN)C(=O)OC(C)(C)C [L-054,522]
effect on growth hormone and glucagon releases [17]: inhibitory effect on growth hormone and glucagon releases
